PubChem BioAssay AID1963975 (Molecular Pharmacology Branch, DTP, NCI, 2024)

Tested on: 624824-186-R-J2-PDC multicell spheroids, viability
Assay: Anticancer human tumor 624824-186-R-J2-PDC patient-derived colon adenocarcinoma cell line growth inhibition [PI3K]
Conditions: for IC50: curve of first compound; for viability, T/C: stronger effect = lower value
Outline: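 Tumor cells were combined with HUVEC and MSCs into spheroids, then dosed with PI3K-inhibitor combinations over half-log ranges capped near clinical Cmax or 10 microM.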

[1] = second compound 0.0316 µM, first compound 0.0316 µM
[2] = second compound 0.0316 µM, first compound 0.1 µM
[3] = second compound 0.1 µM, first compound 0.0316 µM
[4] = second compound 0.1 µM, first compound 0.1 µM
[5] = second compound 0.316 µM, first compound 0.0316 µM
[6] = second compound 0.316 µM, first compound 0.1 µM
[7] = second compound 1 µM, first compound 0.0316 µM
[8] = second compound 1 µM, first compound 0.1 µM
[9] = second compound 3.16 µM, first compound 0.0316 µM
[10] = second compound 3.16 µM, first compound 0.1 µM
[11] = second compound 10 µM, first compound 0.0316 µM
[12] = second compound 10 µM, first compound 0.1 µM
[13] = second compound 0.0316 µM, first compound 0.316 µM
[14] = second compound 0.0316 µM, first compound 1 µM
[15] = second compound 0.0316 µM, first compound 3.16 µM
[16] = second compound 0.0316 µM, first compound 10 µM
[17] = second compound 0.1 µM, first compound 0.316 µM
[18] = second compound 0.1 µM, first compound 1 µM
[19] = second compound 0.1 µM, first compound 3.16 µM
[20] = second compound 0.1 µM, first compound 10 µM
[21] = second compound 0.316 µM, first compound 0.316 µM
[22] = second compound 0.316 µM, first compound 1 µM
[23] = second compound 0.316 µM, first compound 3.16 µM
[24] = second compound 0.316 µM, first compound 10 µM
[25] = second compound 1 µM, first compound 0.316 µM
[26] = second compound 1 µM, first compound 1 µM
[27] = second compound 1 µM, first compound 3.16 µM
[28] = second compound 1 µM, first compound 10 µM
[29] = second compound 3.16 µM, first compound 0.316 µM
[30] = second compound 3.16 µM, first compound 1 µM
[31] = second compound 3.16 µM, first compound 3.16 µM
[32] = second compound 3.16 µM, first compound 10 µM
[33] = second compound 10 µM, first compound 0.316 µM
[34] = second compound 10 µM, first compound 1 µM
[35] = second compound 10 µM, first compound 3.16 µM
[36] = second compound 10 µM, first compound 10 µM
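Also: spheroids exposed to agents for 7 days before viability read.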
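For viability, T/C in this document: 100% = DMSO vehicle treated spheroids.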

`CC(=O)c1c(C)c2cnc(Nc3ccc(N4CCNCC4)cn3)nc2n(C2CCCC2)c1=O` + CC(Nc1ncnc2nc[nH]c12)c1cc2cccc(Cl)c2c(=O)n1-c1ccccc1 showed an IC50 (second compound 0.0316 µM) greater than 0.1 µM, an IC50 (second compound 0.1 µM) greater than 0.1 µM and an IC50 (second compound 0.316 µM) greater than 0.1 µM. It also gave an IC50 (second compound 1 µM) greater than 0.1 µM, an IC50 (second compound 3.16 µM) greater than 0.1 µM and an IC50 (second compound 10 µM) greater than 0.1 µM. The viability, T/C (second compound 0.0316 µM, first compound 0.000316 µM) was 78.8%, the viability, T/C (second compound 0.0316 µM, first compound 0.001 µM) was 118% and the viability, T/C (second compound 0.0316 µM, first compound 0.00316 µM) was 98.7%. For the same compound, the viability, T/C (second compound 0.0316 µM, first compound 0.01 µM) was 98.5%, the viability, T/C [1] was 80.5% and the viability, T/C [2] was 86.1%. It also gave a viability, T/C (second compound 0.1 µM, first compound 0.000316 µM) of 107%, a viability, T/C (second compound 0.1 µM, first compound 0.001 µM) of 85.2% and a viability, T/C (second compound 0.1 µM, first compound 0.00316 µM) of 84.4%. For the same compound, the viability, T/C (second compound 0.1 µM, first compound 0.01 µM) was 79.9%, the viability, T/C [3] was 90% and the viability, T/C [4] was 93.5%. The viability, T/C (second compound 0.316 µM, first compound 0.000316 µM) was 121%, the viability, T/C (second compound 0.316 µM, first compound 0.001 µM) was 134% and the viability, T/C (second compound 0.316 µM, first compound 0.00316 µM) was 79.8%. The viability, T/C (second compound 0.316 µM, first compound 0.01 µM) was 77.5%, the viability, T/C [5] was 78.2% and the viability, T/C [6] was 93%. The viability, T/C (second compound 1 µM, first compound 0.000316 µM) was 111%, the viability, T/C (second compound 1 µM, first compound 0.001 µM) was 96.6% and the viability, T/C (second compound 1 µM, first compound 0.00316 µM) was 89.5%. The viability, T/C (second compound 1 µM, first compound 0.01 µM) was 108%, the viability, T/C [7] was 88.6% and the viability, T/C [8] was 92.6%. The viability, T/C (second compound 3.16 µM, first compound 0.000316 µM) was 98.8%, the viability, T/C (second compound 3.16 µM, first compound 0.001 µM) was 83.6% and the viability, T/C (second compound 3.16 µM, first compound 0.00316 µM) was 91.9%. It also gave a viability, T/C (second compound 3.16 µM, first compound 0.01 µM) of 111%, a viability, T/C [9] of 88.5% and a viability, T/C [10] of 84%. The viability, T/C (second compound 10 µM, first compound 0.000316 µM) was 112%, the viability, T/C (second compound 10 µM, first compound 0.001 µM) was 110% and the viability, T/C (second compound 10 µM, first compound 0.00316 µM) was 107%. It also gave a viability, T/C (second compound 10 µM, first compound 0.01 µM) of 96.3%, a viability, T/C [11] of 92.4% and a viability, T/C [12] of 94%.

Work on `CCCS(=O)(=O)Nc1ccc(F)c(C(=O)c2c[nH]c3ncc(-c4ccc(Cl)cc4)cc23)c1F` + CC(Nc1ncnc2nc[nH]c12)c1cc2cccc(Cl)c2c(=O)n1-c1ccccc1 yielded an IC50 (second compound 0.0316 µM) greater than 10 µM, an IC50 (second compound 0.1 µM) of 8.61 µM and an IC50 (second compound 0.316 µM) greater than 10 µM. For the same compound, the IC50 (second compound 1 µM) was 9.47 µM, the IC50 (second compound 3.16 µM) was greater than 10 µM and the IC50 (second compound 10 µM) was 6.82 µM. For the same compound, the viability, T/C [1] was 90.2%, the viability, T/C [2] was 74.8% and the viability, T/C [13] was 92.9%. For the same compound, the viability, T/C [14] was 84%, the viability, T/C [15] was 133% and the viability, T/C [16] was 66.6%. The viability, T/C [3] was 108%, the viability, T/C [4] was 80.1% and the viability, T/C [17] was 90%. The viability, T/C [18] was 74.8%, the viability, T/C [19] was 128% and the viability, T/C [20] was 43%. For the same compound, the viability, T/C [5] was 113%, the viability, T/C [6] was 85.1% and the viability, T/C [21] was 72.8%. The viability, T/C [22] was 111%, the viability, T/C [23] was 130% and the viability, T/C [24] was 65.5%. The viability, T/C [7] was 83.5%, the viability, T/C [8] was 65.2% and the viability, T/C [25] was 81%. For the same compound, the viability, T/C [26] was 103%, the viability, T/C [27] was 125% and the viability, T/C [28] was 47.8%. For the same compound, the viability, T/C [9] was 110%, the viability, T/C [10] was 88.1% and the viability, T/C [29] was 70.1%. The viability, T/C [30] was 77.3%, the viability, T/C [31] was 109% and the viability, T/C [32] was 52.9%. For the same compound, the viability, T/C [11] was 112%, the viability, T/C [12] was 95% and the viability, T/C [33] was 80.3%. The viability, T/C [34] was 79.9%, the viability, T/C [35] was 83.4% and the viability, T/C [36] was 35.2%.

`CNC(=O)c1ccc(N2C(=S)N(c3ccc(C#N)c(C(F)(F)F)c3)C(=O)C2(C)C)cc1F` + CC(Nc1ncnc2nc[nH]c12)c1cc2cccc(Cl)c2c(=O)n1-c1ccccc1 was tested, and the IC50 (second compound 0.0316 µM) was greater than 10 µM, the IC50 (second compound 0.1 µM) was greater than 10 µM and the IC50 (second compound 0.316 µM) was greater than 10 µM. For the same compound, the IC50 (second compound 1 µM) was greater than 10 µM, the IC50 (second compound 3.16 µM) was greater than 10 µM and the IC50 (second compound 10 µM) was greater than 10 µM. For the same compound, the viability, T/C [1] was 94.8%, the viability, T/C [2] was 95.8% and the viability, T/C [13] was 74.2%. The viability, T/C [14] was 98.4%, the viability, T/C [15] was 102% and the viability, T/C [16] was 116%. It also gave a viability, T/C [3] of 104%, a viability, T/C [4] of 101% and a viability, T/C [17] of 100%. The viability, T/C [18] was 95.8%, the viability, T/C [19] was 86.5% and the viability, T/C [20] was 124%. The viability, T/C [5] was 106%, the viability, T/C [6] was 114% and the viability, T/C [21] was 78.8%. It also gave a viability, T/C [22] of 95.4%, a viability, T/C [23] of 93.1% and a viability, T/C [24] of 101%. It also gave a viability, T/C [7] of 94.9%, a viability, T/C [8] of 92.2% and a viability, T/C [25] of 101%. The viability, T/C [26] was 84.4%, the viability, T/C [27] was 122% and the viability, T/C [28] was 117%. The viability, T/C [9] was 115%, the viability, T/C [10] was 79.2% and the viability, T/C [29] was 91.1%. It also gave a viability, T/C [30] of 127%, a viability, T/C [31] of 83.2% and a viability, T/C [32] of 96.9%. The viability, T/C [11] was 101%, the viability, T/C [12] was 120% and the viability, T/C [33] was 107%. For the same compound, the viability, T/C [34] was 90.7%, the viability, T/C [35] was 101% and the viability, T/C [36] was 117%.

Compound `Cn1cnc2c(F)c(Nc3ccc(Br)cc3Cl)c(C(=O)NOCCO)cc21` + CC(Nc1ncnc2nc[nH]c12)c1cc2cccc(Cl)c2c(=O)n1-c1ccccc1 has an IC50 (second compound 0.0316 µM) greater than 3 µM, an IC50 (second compound 0.1 µM) greater than 3 µM and an IC50 (second compound 0.316 µM) greater than 3 µM. For the same compound, the IC50 (second compound 1 µM) was greater than 3 µM, the IC50 (second compound 3.16 µM) was greater than 3 µM and the IC50 (second compound 10 µM) was greater than 3 µM. For the same compound, the viability, T/C (second compound 0.0316 µM, first compound 0.00949 µM) was 73.3%, the viability, T/C (second compound 0.0316 µM, first compound 0.03 µM) was 89.5% and the viability, T/C (second compound 0.0316 µM, first compound 0.0949 µM) was 69.2%. It also gave a viability, T/C (second compound 0.0316 µM, first compound 0.3 µM) of 63.5%, a viability, T/C (second compound 0.0316 µM, first compound 0.949 µM) of 68% and a viability, T/C (second compound 0.0316 µM, first compound 3 µM) of 60.6%. The viability, T/C (second compound 0.1 µM, first compound 0.00949 µM) was 79.8%, the viability, T/C (second compound 0.1 µM, first compound 0.03 µM) was 62.7% and the viability, T/C (second compound 0.1 µM, first compound 0.0949 µM) was 70.8%. The viability, T/C (second compound 0.1 µM, first compound 0.3 µM) was 55.8%, the viability, T/C (second compound 0.1 µM, first compound 0.949 µM) was 64.2% and the viability, T/C (second compound 0.1 µM, first compound 3 µM) was 62.1%. For the same compound, the viability, T/C (second compound 0.316 µM, first compound 0.00949 µM) was 86.9%, the viability, T/C (second compound 0.316 µM, first compound 0.03 µM) was 64.5% and the viability, T/C (second compound 0.316 µM, first compound 0.0949 µM) was 58.6%. For the same compound, the viability, T/C (second compound 0.316 µM, first compound 0.3 µM) was 59.5%, the viability, T/C (second compound 0.316 µM, first compound 0.949 µM) was 60.5% and the viability, T/C (second compound 0.316 µM, first compound 3 µM) was 61.2%. The viability, T/C (second compound 1 µM, first compound 0.00949 µM) was 75.2%, the viability, T/C (second compound 1 µM, first compound 0.03 µM) was 75.3% and the viability, T/C (second compound 1 µM, first compound 0.0949 µM) was 65.1%. For the same compound, the viability, T/C (second compound 1 µM, first compound 0.3 µM) was 67%, the viability, T/C (second compound 1 µM, first compound 0.949 µM) was 58.5% and the viability, T/C (second compound 1 µM, first compound 3 µM) was 53.5%. The viability, T/C (second compound 3.16 µM, first compound 0.00949 µM) was 78.2%, the viability, T/C (second compound 3.16 µM, first compound 0.03 µM) was 74.7% and the viability, T/C (second compound 3.16 µM, first compound 0.0949 µM) was 60.6%. The viability, T/C (second compound 3.16 µM, first compound 0.3 µM) was 59.6%, the viability, T/C (second compound 3.16 µM, first compound 0.949 µM) was 56.2% and the viability, T/C (second compound 3.16 µM, first compound 3 µM) was 50.6%. The viability, T/C (second compound 10 µM, first compound 0.00949 µM) was 72.7%, the viability, T/C (second compound 10 µM, first compound 0.03 µM) was 71.8% and the viability, T/C (second compound 10 µM, first compound 0.0949 µM) was 67.4%. For the same compound, the viability, T/C (second compound 10 µM, first compound 0.3 µM) was 60.7%, the viability, T/C (second compound 10 µM, first compound 0.949 µM) was 57.5% and the viability, T/C (second compound 10 µM, first compound 3 µM) was 51.2%.
